Assay results as given in patent US12419956B2, “Controlled drug release system of photoresponsive nanocarriers, methods of making and using thereof” (THE UNIVERSITY OF HONG KONG, priority 2020, dated 2025).

Tests used:
[1] = Photocleavage under 505 nm green LED light, determined by HPLC; format: physicochemical; settings: free DTAEA in 50% acetonitrile/H2O, 50 mW/cm^2, 1 min
Protocol: The photocleavage mechanism of coumarin carbamate derivatives was reported as carbocation formation following with the addition of —OH group in aqueous solutions (FIG. 6a).^9 To quantitatively measure the photocleavage rate of free DTAEA, quartz cuvettes containing DTAEA in 50% acetonitrile/H2O was irradiated with 505 nm green LED light. At predetermined time points, the remaining DTAEA and released DEAdcCM were determined by high performance liquid chromatography (HPLC). […] The similar photocleavage process in DTAEA NPs took about 5 minutes for the completely consumption of DTAEA (FIG. 6c), which was slightly slow down compared to free DTAEA in the mixture of acetonitrile and water. […] Based on the photocleavage performance of DTAEA and DTNPs, the irradiation duration was set to be no less than 5 min with 505 nm green LED light at 50 mW/cm^2.

[2] = Systemic toxicity in treated tumor-bearing mice: body weight and H&E histology; format: in vivo, BALB/c nude mice; settings: drug administration period (Day 0 to Day 10), 5 mg/kg I.V.
Protocol: (§1) Generally, WERI-Rb-1 cells were injected slowly into the vitreous cavity at the right eyes of Bulb/c nude mice for the tumor implantation. […] The light irradiation was performed at the right eyes immediately after injection. […] To evaluate the biodistribution, the mice were euthanized after the above treatment, and their eyes (both sides), heart, lung, liver, spleen and kidney were further exteriorized for ex vivo fluorescence imaging. […] Seven days after the intraocular injection of WERI-Rb-1-GFP-luc cells, the luminescence signals from the cells can be determined by in vivo imaging system for in situ monitoring of orthotopic ocular tumors. […] The dosage of drug administration was precisely controlled based on the body weight of mice and set as 5 mg/kg body weight. The I.V. injection of formulations was applied every two days for five times. […] During the treatment, bioluminescence from the tumors was detected for tumor growth monitoring. […] Considering individual differences, tumor growth curves (FIG. 14b) of different groups were obtained by setting the bioluminescence intensity on the day before treatment (Day 0) as the origin and determining the quantitative changes in the subsequent days. […] The histological patterns of tumor-bearing retina and main organs were studied by hematoxylin and eosin (H&E) staining (FIG. 15 and FIG. 16).

[3] = system: WERI-Rb-1-GFP-luc orthotopic tumor; test: Therapeutic effect on orthotopic WERI-Rb-1-GFP-luc tumors, bioluminescence; format: in vivo, BALB/c nude mice; settings: Day 25; 5 mg/kg I.V. every two days for five times; no irradiation
Protocol: as §1

[4] = system: human umbilical vein endothelial cells (HUVEC); test: Light-triggered cellular uptake in HUVEC cells, fluorescence microscopy; format: cell-based
Protocol: We further investigated the cellular uptake of the photo-released DOX by fluorescence microscopy and flow cytometry. In this work, human umbilical vein endothelial cells (HUVEC) and human retinoblastoma cells (WERI-Rb-1) were employed to investigate the cellular uptake. The cells were treated with various formulations, including free DOX, DOX/DTNPs and DOX/DTNPs+light irradiation (hv).

DTAEA cleaved [1] | SMILES | body weight decrease [2] | increase of bioluminescence intensity in eyes, compared to Day 0 [3] [folds] | red fluorescence intensity (DOX) in cells ([4]; HUVEC, no irradiation) | intracellular distribution of DOX fluorescence ([4]; without irradiation)
More than 90% | CCN(CC)c1ccc2c(c1)OC(=C(C#N)C#N)C=C2COC(=O)NCCN(CCNC(=O)OCC1=CC(=C(C#N)C#N)Oc2cc(N(CC)CC)ccc21)CCNC(=O)OCC1=CC(=C(C#N)C#N)Oc2cc(N(CC)CC)ccc21 [DTAEA, (DEAdcCM)3-TAEA] |  |  |  | 
 | COc1cccc2c1C(=O)c1c(O)c3c(c(O)c1C2=O)C[C@@](O)(C(=O)CO)C[C@@H]3O[C@H]1C[C@H](N)[C@H](O)[C@H](C)O1 [free DOX, doxorubicin] | about 10% | 64.0 | as high as the irradiated group | observed in the cell nuclei
